In EP4772497A1, “POLYMORPHS OF NITROGEN-CONTAINING HETEROCYCLIC COMPOUNDS, AND USES THEREOF” (BNH Research Co., Ltd., priority 2023, dated 2025):

How the values were obtained:
APP/PS1 mice = assay: fEPSP slope and LTP in hippocampal CA1 (Schaffer collateral) after dosing, ex vivo synaptic plasticity; settings: APP/PS1 mice 15 months old, form C 1 mg/kg orally once daily about 11 to 13 days, aducanumab 5 mg/kg i.v., four weekly injections
Procedure: Using APP/PS1 mice (15 months old, Taconic Biosciences), an animal model of Alzheimer's disease, the efficacy of crystalline form C and aducanumab (Creative Biolabs) was evaluated when administered alone or in combination, respectively. A control group and four experimental groups were prepared as follows (see Table 14).
For the control antibody, an isotype antibody was administered intravenously, and for the vehicle, 200 µL of a mixed solution of DMSO (10):PEG400 (44):saline (55) was administered orally. Five mice were used for each treatment group.
Aducanumab was administered at a dose of 5 mg/kg, and the control antibody, which is an inactivated form of aducanumab, was administered at a dose of 5 mg/kg. For the intravenous administration, a total of four injections were administered into the tail vein on the starting day of the experiment and at one-week intervals thereafter.
For oral administration, 1 mg/kg of the compound of the present disclosure (crystalline form C, BnH-015B) or a vehicle was administered orally once daily for about 11 to 13 days, starting about 2 weeks after the initiation of the experiment.

Aβ plaques = assay: Bielschowsky silver staining of brain sections; format: in vivo, mice; settings: 1 mg/kg orally, cerebral cortex, vs vehicle control
Procedure: To evaluate the efficacy of crystalline form C of the present disclosure in inhibiting amyloid-beta protein accumulation, mouse proteomic profiling array analysis and Bielschowsky silver staining were performed. […]
Bielschowski silver staining (Bielschowski Silver Staining Kit, ab245877, abcam, Cambridge, UK) was performed according to the manufacturer's protocol. 40 µm-thick brain sections of APP/PS1 mice were incubated in a warm 20% silver nitrate solution at 40°C for 15 minutes, followed by four washes with distilled water and three rinses with water for 3 minutes each. The slides were incubated in an ammoniacal silver solution at 40°C for 10 minutes, and then placed in a developer solution (containing 8 drops of 20% formalin, 8 drops of citric acid, and 4 drops of nitric acid in 50 mL H2O) for a few seconds until the tissue sections turned yellow/brown. Subsequently, the slides were placed in aqueous ammonia for 30 seconds. The sections were washed three times with water for 2 minutes each and incubated in a 5% thiosulfate solution for 2 minutes. […]
Statistical analysis was performed using GraphPad Prism 9.5.0 software (San Diego, CA, USA). […] All data are expressed as mean ± SEM.

C57BL/6J mice = assay: TC synaptic potency and GABA/AMPA ratio in the barrel cortex after oral administration; format: in vivo; settings: 8-week-old C57BL/6J mice, 1 mg/kg orally, barrel cortex (layer 4)
Procedure: Following oral administration of crystalline form C, the efficacy of the compound was evaluated by measuring the potency and the GABA/AMPA ratio in the barrel cortex.
Crystalline form C was orally administered at a dose of 1 mg/kg to 8-week-old C57BL/6J mice. For the control group, 200 µL of a mixed solution of DMSO (10):PEG400 (44):saline (55) was orally administered as a vehicle. Experiments were performed on five mice each for the control (vehicle) group and the compound-treated group.

[1] = Hygroscopicity by dynamic vapor sorption (DVS); format: physicochemical
Procedure: Instrument model: SMS DVS Advantage Dynamic Vapor Sorption System Test method: A sample (10 to 15 mg) is taken and placed on a DVS sample pan, and measurement is performed. Detailed DVS parameters are as follows. Temperature: 25°C Equilibrium dm/dt = 0.002%/min: (minimum: 60 min, maximum: 240 min) Relative humidity (RH (%)) measurement gradient: 10% Relative Humidity (RH (%)) measurement gradient cycle: 40-0-95-0-40% The following description provides the criteria for determining hygroscopicity: [Table 6]
The moisture adsorption and desorption behavior of crystalline form C was investigated by the DVS test of Experimental Method 5. XRPD was performed to confirm any change in form after the DVS test.

[2] = Wet granulation simulation experiment (XRPD); format: physicochemical; settings: ground, dried 10 minutes
Procedure: Water or ethanol was added dropwise to about 10 mg of crystalline form C until it was sufficiently wetted. The wet sample was gently ground using a mortar and pestle. After the granulation, the sample was dried under ambient conditions for 10 minutes. Potential changes in form and crystallinity were evaluated by XRPD.
The XRPD results of the wet granulation simulation experiments are shown in Fig. 12, where GNSE1 and GNSE2 represent experiment IDs for water and ethanol, respectively.

[3] = Competitive equilibrium experiments for crystalline forms A and C (XRPD, DSC); format: physicochemical; settings: forms A and C slurried in acetone, acetonitrile, ethyl acetate, isopropyl acetate, acetone/water (35:65) at 5°C, 25°C, 50°C for 1 week
Procedure: Competitive equilibrium experiments were performed in various solvent systems to determine the relative stability of crystalline forms A and C.
About 15 mg of crystalline form A and 15 mg of crystalline form C were added to 0.2 mL of a saturated solution of each of selected solvents (acetone, acetonitrile, ethyl acetate, isopropyl acetate, and acetone/water (v:v=35:65)) (Table 9). The obtained suspensions were stirred at 5°C, 25°C, and 50°C, respectively, for 1 week. The solid portion (wet cake) was isolated by centrifugal filtration and analyzed by XRPD and DSC, and the results are shown in Figs. 7a to 7f.

With C[C@@H]1CC[C@H](C(=O)O)CN1C(=O)Cc1ccc(F)cc1Cl [Crystalline form C, (3S,6R)-1-(2-(2-chloro-4-fluorophenyl)acetyl)-6-methylpiperidine-3-carboxylic acid] the “long-term potentiation (LTP) of the fEPSP, excitatory SC pathway” value (APP/PS1 mice; hippocampus CA1) was “significantly increased”, the “slope of the field excitatory postsynaptic potential (fEPSP), synaptic efficacy” value (APP/PS1 mice; hippocampus CA1, 4 weeks) was “significantly increased” and the “Aβ plaques (percent area)” value (Aβ plaques) was “reduced Aβ plaques”. For the same molecule, the TC synaptic potency (C57BL/6J mice) was “increase TC synaptic potency”, the “balance of excitation/inhibition (GABA/AMPA ratio)” value (C57BL/6J mice) was “maintaining the balance of excitation/inhibition” and the Classification of hygroscopicity ([1]; DVS, 25°C) was “non-hygroscopic”. For the same molecule, the “Weight change (%) in 1st adsorption” value ([1]; Relative humidity 0% at 25°C) was 0%, the “Weight change (%) in 1st desorption” value ([1]; Relative humidity 0% at 25°C) was 0% and the “Weight change (%) in 2nd adsorption” value ([1]; Relative humidity 0% at 25°C) was 0%. For the same molecule, the “Weight change (%) in 2nd desorption” value ([1]; Relative humidity 0% at 25°C) was 0%, the “Weight change (%) in 1st adsorption” value ([1]; Relative humidity 10% at 25°C) was 0% and the “Weight change (%) in 1st desorption” value ([1]; Relative humidity 10% at 25°C) was 0%. The “Weight change (%) in 2nd adsorption” value ([1]; Relative humidity 10% at 25°C) was 0%, the “Weight change (%) in 2nd desorption” value ([1]; Relative humidity 10% at 25°C) was 0% and the “Weight change (%) in 1st adsorption” value ([1]; Relative humidity 20% at 25°C) was 0%. For the same molecule, the “Weight change (%) in 1st desorption” value ([1]; Relative humidity 20% at 25°C) was 0%, the “Weight change (%) in 2nd adsorption” value ([1]; Relative humidity 20% at 25°C) was 0% and the “Weight change (%) in 2nd desorption” value ([1]; Relative humidity 20% at 25°C) was 0%. The “Weight change (%) in 1st adsorption” value ([1]; Relative humidity 30% at 25°C) was 0%, the “Weight change (%) in 1st desorption” value ([1]; Relative humidity 30% at 25°C) was 0% and the “Weight change (%) in 2nd adsorption” value ([1]; Relative humidity 30% at 25°C) was 0%. The “Weight change (%) in 2nd desorption” value ([1]; Relative humidity 30% at 25°C) was 0%, the “Weight change (%) in 1st adsorption” value ([1]; Relative humidity 40% at 25°C) was 0% and the “Weight change (%) in 1st desorption” value ([1]; Relative humidity 40% at 25°C) was 0%. For the same molecule, the “Weight change (%) in 2nd adsorption” value ([1]; Relative humidity 40% at 25°C) was 0%, the “Weight change (%) in 2nd desorption” value ([1]; Relative humidity 40% at 25°C) was 0.1% and the “Weight change (%) in 1st adsorption” value ([1]; Relative humidity 50% at 25°C) was 0.1%. For the same molecule, the “Weight change (%) in 2nd desorption” value ([1]; Relative humidity 50% at 25°C) was 0.1%, the “Weight change (%) in 1st adsorption” value ([1]; Relative humidity 60% at 25°C) was 0.1% and the “Weight change (%) in 2nd desorption” value ([1]; Relative humidity 60% at 25°C) was 0.1%. For the same molecule, the “Weight change (%) in 1st adsorption” value ([1]; Relative humidity 70% at 25°C) was 0.1%, the “Weight change (%) in 2nd desorption” value ([1]; Relative humidity 70% at 25°C) was 0.1% and the “Weight change (%) in 1st adsorption” value ([1]; Relative humidity 80% at 25°C) was 0.1%. For the same molecule, the “Weight change (%) in 2nd desorption” value ([1]; Relative humidity 80% at 25°C) was 0.1%, the “Weight change (%) in 1st adsorption” value ([1]; Relative humidity 90% at 25°C) was 0.1% and the “Weight change (%) in 2nd desorption” value ([1]; Relative humidity 90% at 25°C) was 0.1%. For the same molecule, the “Weight change (%) in 1st adsorption” value ([1]; Relative humidity 95% at 25°C) was 0.1%, the “Weight change (%) in 2nd desorption” value ([1]; Relative humidity 95% at 25°C) was 0.1% and the “crystalline form after the DVS test (XRPD)” value ([1]; sample obtained after the DVS test) was “still exhibits crystalline pattern C”. For the same molecule, the moisture uptake ([1]; up to 95% RH, 25°C) was “less than 0.2%”, the “change in form and crystallinity on granulation with ethanol” value ([2]; wetted with ethanol) was “no change in form, but its crystallinity decreased significantly” and the “change in form and crystallinity on granulation with water” value ([2]; wetted with water) was “without any change in form or apparent decrease in crystallinity”. For the same molecule, the “relative stability of crystalline forms A and C” value [3] was “most thermodynamically stable crystalline form below 50 °C”.
